Experimental data: patent US11034718B2, “C-3 novel triterpenone with C-17 reverse amide derivatives as HIV inhibitors” (HETERO LABS LIMITED, priority 2015, dated 2021)
Where two headings read alike, the source gives them in different places.

Assays:
Type in all cases: cell-based
HIV-1 pNL4-3 WT = assay: Antiviral activity against pNL4-3/WT strain in MT4 cells (p24 estimation); settings: Human immunodeficiency virus 1, MT4, 96 h, read-out: pNL4-3 WT IC50
Procedure, shortened: (§1)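 MT4 cells infected with HIV-1 pNL4-3 WT or V7A (defined TCID50, 1.5 h, 37° C), plated at 3×10^4 cells/well with test compound, final DMSO ≤1%. After 4 days' culture, p24 in supernatant aliquots measured by kit.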

HIV-1 pNL4-3 V7A = assay: Antiviral activity against pNL4-3/V7A strain in MT4 cells (p24 estimation); settings: Human immunodeficiency virus 1, MT4, 96 h, read-out: pNL4-3 V7A IC50
Procedure, shortened: as §1

HIV-1 strain 92HT599 = assay: Antiviral activity against HIV-1 strain 92HT599 in MT2 cells (p24 estimation); settings: HIV-1 92HT599, ~96 hours
Procedure, shortened: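 Percent inhibition versus vehicle controls came from p24 quantified in supernatant aliquots. These were taken after ~96 h incubation of compound (DMSO ≤1%) with MT2 cells infected at 10 TCID50/30,000 cells.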

[1] = Human immunodeficiency virus 1, 0% serum binding assay, read-out: IC50 0% serum
[2] = Human immunodeficiency virus 1, 40% serum binding assay, read-out: IC50 40% serum

SMILES	IC50 (HIV-1 pNL4-3 WT)	IC50 (HIV-1 pNL4-3 V7A)	IC50 (HIV-1 strain 92HT599; [1])	IC50 (HIV-1 strain 92HT599; [2])
CC(C)C1=C2[C@H]3CC[C@@H]4[C@@]5(C)CC[C@H](OC(=O)[C@H]6C[C@@H](C(=O)O)C6(C)C)C(C)(C)[C@@H]5CC[C@@]4(C)[C@]3(C)CC[C@@]2(NC(=O)C(C)(C)NC(=O)c2cnn3cccnc23)CC1=O [Example 54, (1R,3S)-3-((((3aR,5aR,5bR,7aR,9S,11aR,11bR,13aS)-1-isopropyl-5a,5b,8,8,11a-pentamethyl-3a-(2-methyl-2-(pyrazolo[1,5-a]pyrimidine-3-carboxamido)propanamido)-2-oxo-3,3a,4,5,5a,5b,6,7,7a,8,9,10,11,11a,11b,12,13,13a-octadecahydro-2H-cyclopenta[a]chrysen-9-yl)oxy)carbonyl)-2,2-dimethylcyclobutane-1-carboxylic acid]	< 5 nM	10 to 50 nM	< 3 nM	< 50 nM
CC(C)C1=C2[C@H]3CC[C@@H]4[C@@]5(C)CC[C@H](OC(=O)[C@H]6C[C@@H](C(=O)O)C6(C)C)C(C)(C)[C@@H]5CC[C@@]4(C)[C@]3(C)CC[C@@]2(NC(=O)C(C)(C)NC(=O)c2csc(N)n2)CC1=O [Example 55, (1R,3S)-3-((((3aR,5aR,5bR,7aR,9S,11aR,11bR,13aS)-3a-(2-(2-aminothiazole-4-carboxamido)-2-methylpropanamido)-1-isopropyl-5a,5b,8,8,11a-pentamethyl-2-oxo-3,3a,4,5,5a,5b,6,7,7a,8,9,10,11,11a,11b,12,13,13a-octadecahydro-2H-cyclopenta[a]chrysen-9-yl)oxy)carbonyl)-2,2-dimethylcyclobutane-1-carboxylic acid]	> 10 nM	> 50 nM	3.01 to 10 nM	50 to 200 nM
Cc1nnc(-c2ccc(C(=O)NC(C)(C)C(=O)N[C@@]34CC[C@]5(C)[C@H](CC[C@@H]6[C@@]7(C)CC[C@H](OC(=O)[C@H]8C[C@@H](C(=O)O)C8(C)C)C(C)(C)[C@@H]7CC[C@]65C)C3=C(C(C)C)C(=O)C4)cc2)o1 [Example 56, (1R,3S)-3-((((3aR,5aR,5bR,7aR,9S,11aR,11bR,13aS)-1-isopropyl-5a,5b,8,8,11a-pentamethyl-3a-(2-methyl-2-(4-(5-methyl-1,3,4-oxadiazol-2-yl)benzamido)propanamido)-2-oxo-3,3a,4,5,5a,5b,6,7,7a,8,9,10,11,11a,11b,12,13,13a-octadecahydro-2H-cyclopenta[a]chrysen-9-yl)oxy)carbonyl)-2,2-dimethylcyclobutane-1-carboxylic acid]	5.01 to 10 nM	10 to 50 nM	< 3 nM	< 50 nM
CC(C)C1=C2[C@H]3CC[C@@H]4[C@@]5(C)CC[C@H](OC(=O)[C@H]6C[C@@H](C(=O)O)C6(C)C)C(C)(C)[C@@H]5CC[C@@]4(C)[C@]3(C)CC[C@@]2(NC(=O)C(C)(C)NC(=O)c2ccc(N3CCS(=O)(=O)CC3)cc2)CC1=O [Example 57, (1R,3S)-3-((((3aR,5aR,5bR,7aR,9S,11aR,11bR,13aS)-3a-(2-(4-(1,1-dioxidothiomorpholino)benzamido)-2-methylpropanamido)-1-isopropyl-5a,5b,8,8,11a-pentamethyl-2-oxo-3,3a,4,5,5a,5b,6,7,7a,8,9,10,11,11a,11b,12,13,13a-octadecahydro-2H-cyclopenta[a]chrysen-9-yl)oxy)carbonyl)-2,2-dimethylcyclobutane-1-carboxylic acid]	5.01 to 10 nM	10 to 50 nM	< 3 nM	< 50 nM
CC(C)C1=C2[C@H]3CC[C@@H]4[C@@]5(C)CC[C@H](OC(=O)[C@H]6C[C@@H](C(=O)O)C6(C)C)C(C)(C)[C@@H]5CC[C@@]4(C)[C@]3(C)CC[C@@]2(NC(=O)C(C)(C)NC(=O)c2ccc(CN3CCS(=O)(=O)CC3)cc2)CC1=O [Example 58, (1R,3S)-3-((((3aR,5aR,5bR,7aR,9S,11aR,11bR,13aS)-3a-(2-(4-((1,1-dioxidothiomorpholino)methyl)benzamido)-2-methylpropanamido)-1-isopropyl-5a,5b, 8,8,11a-pentamethyl-2-oxo-3,3a,4,5,5a,5b,6,7,7a,8,9,10,11,11a,11b,12,13,13a-octalecahydro-2H-cyclopenta[a]chrysen-9-yl)oxy)carbonyl)-2,2-dimethylcyclobutane-1-carboxylic acid]	5.01 to 10 nM	> 50 nM	< 3 nM	< 50 nM
Cc1ccc(C(=O)NC(C)(C)C(=O)N[C@@]23CC[C@]4(C)[C@H](CC[C@@H]5[C@@]6(C)CC[C@H](OC(=O)[C@H]7C[C@@H](C(=O)O)C7(C)C)C(C)(C)[C@@H]6CC[C@]54C)C2=C(C(C)C)C(=O)C3)cn1 [Example 61, (1R,3S)-3-((((3aR,5aR,5bR,7aR,9S,11aR,11bR,13aS)-1-isopropyl-5a,5b,8,8,11a-pentamethyl-3a-(2-methyl-2-(6-methylnicotinamido)propanamido)-2-oxo-3,3a,4,5,5a,5b,6,7,7a,8,9,10,11,11a,11b,12,13,13a-octadecahydro-2H-cyclopenta[a]chrysen-9-yl)oxy)carbonyl)-2,2-dimethylcyclobutane-1-carboxylic acid]	< 5 nM	10 to 50 nM	< 3 nM	< 50 nM
CC(C)C1=C2[C@H]3CC[C@@H]4[C@@]5(C)CC[C@H](OC(=O)[C@H]6C[C@@H](C(=O)O)C6(C)C)C(C)(C)[C@@H]5CC[C@@]4(C)[C@]3(C)CC[C@@]2(NC(=O)C(C)(C)NS(C)(=O)=O)CC1=O [Example 63, sodium (1R,3S)-3-((((3aR,5aR,5bR,7aR,9S,11aR,11bR,13aS)-1-isopropyl-5a,5b,8,8,11a-pentamethyl-3a-(2-methyl-2-(methylsulfonamido)propanamido)-2-oxo-3,3a,4,5,5a,5b,6,7,7a,8,9,10,11,11a,11b,12,13,13a-octadecahydro-2H-cyclopenta[a]chrysen-9-yl)oxy)carbonyl)-2,2-dimethylcyclobutane-1-carboxylate]	> 10 nM	> 50 nM	< 3 nM	< 50 nM
CCOC(=O)NC(C)(C)C(=O)N[C@@]12CC[C@]3(C)[C@H](CC[C@@H]4[C@@]5(C)CC[C@H](OC(=O)[C@H]6C[C@@H](C(=O)O)C6(C)C)C(C)(C)[C@@H]5CC[C@]43C)C1=C(C(C)C)C(=O)C2 [Example 64]	5.01 to 10 nM	> 50 nM	< 3 nM	< 50 nM
CC(C)C1=C2[C@H]3CC[C@@H]4[C@@]5(C)CC[C@H](OC(=O)[C@H]6C[C@@H](C(=O)O)C6(C)C)C(C)(C)[C@@H]5CC[C@@]4(C)[C@]3(C)CC[C@@]2(NC(=O)C(C)(C)NC(=O)c2ccc(Cl)cn2)CC1=O [Example 70, (1R,3S)-3-((((3aR,5aR,5bR,7aR,9S,11aR,11bR,13aS)-3a-(2-(5-chloropicolinamido)-2-methylpropanamido)-1-isopropyl-5a,5b,8,8,11a-pentamethyl-2-oxo-3,3a,4,5,5a,5b,6,7,7a,8,9,10,11,11a,11b,12,13,13a-octadecahydro-2H-cyclopenta[a]chrysen-9-yl)oxy)carbonyl)-2,2-dimethylcyclobutane-1-carboxylic acid]	< 5 nM	< 10 nM	< 3 nM	< 50 nM
